In patent EP4745118A1, “HYDROXAMIC ACID COMPOUND OR PHARMACEUTICALLY ACCEPTABLE SALT THEREOF, AND USE THEREOF AND PREPARATION METHOD THEREFOR” (priority 2023, dated 2025):
Converted amounts (≈) assume the structure as drawn. Like-named read-outs stand apart in the source and are kept apart here.

Assays:
Proteus mirabilis = test: In vitro antibacterial activity, agar dilution method (MIC); assay type: cell-based
Summary of the method: (§1)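 Following CLSI procedures, isolates are spot-inoculated (~10^4 CFU per site) onto agar containing graded drug levels and incubated at 35°C for 18 h. The MIC is the minimum drug concentration yielding growth-free plates.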

Pantoea agglomerans = test: as above; assay type: cell-based
Summary of the method: as §1

Klebsiella pneumoniae = test: as above; assay type: cell-based; conditions: Klebsiella pneumoniae
Summary of the method: as §1

Citrobacter freundii = test: as above; assay type: cell-based
Summary of the method: as §1

Enterobacter aerogenes = test: as above; assay type: cell-based; conditions: Klebsiella aerogenes
Summary of the method: as §1

Pseudomonas aeruginosa = test: as above; assay type: cell-based
Summary of the method: as §1

Serratia marcescens = test: as above; assay type: cell-based
Summary of the method: as §1

Proteus vulgaris = test: as above; assay type: cell-based
Summary of the method: as §1

Escherichia coli = test: as above; assay type: cell-based; conditions: Escherichia coli
Summary of the method: as §1

[1] = molecular target: T1, recombinant Escherichia coli LpxC enzyme (rLpxC) (Escherichia coli, UniProt P0A725); test: Inhibition of recombinant Escherichia coli LpxC enzyme activity (LC-MS); assay type: biochemical; conditions: 37°C, 30 minutes reaction, substrate UDP-3-O (R-hydroxytetradecanoyl)-N-acetylglucosamine
T1 sequence (P0A725 1-305): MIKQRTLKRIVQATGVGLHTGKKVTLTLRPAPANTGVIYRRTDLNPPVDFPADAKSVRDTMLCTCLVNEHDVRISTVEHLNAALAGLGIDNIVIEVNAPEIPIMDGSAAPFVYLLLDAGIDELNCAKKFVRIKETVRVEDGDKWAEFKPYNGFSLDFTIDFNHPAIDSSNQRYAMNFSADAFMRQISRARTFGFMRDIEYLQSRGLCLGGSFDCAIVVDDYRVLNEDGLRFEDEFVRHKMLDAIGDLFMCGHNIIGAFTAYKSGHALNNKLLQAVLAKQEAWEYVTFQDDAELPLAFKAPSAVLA
Protocol: Preparation of recombinant Escherichia coli LpxC enzyme (rLpxC). 2 µL of recombinant Escherichia coli LpxC enzyme (6.29 mg/mL) was added to 18 µL of distilled water. After thorough mixing, 2 µL of this mixture was added to 1042.4 µL of distilled water and mixed well to prepare a 36 nM working solution.
The substrate was UDP-3-O (R-hydroxytetradecanoyl)-N-acetylglucosamine, with UDP-α-D-N-Acetylglucosamine Disodium Salt as the internal standard. Mobile phase A: 90% water-10% acetonitrile containing 10 mM ammonium acetate; B: acetonitrile.
Reaction system: Corresponding solutions were prepared as per the table below, and placed in a 37°C metal bath, and mixed at 300 rpm for 10 minutes. After mixing for 10 minutes, 10 µl of 250 µM substrate was added to each group to initiate the reaction, and placed in a 37°C metal bath and reacted at 300 rpm for 30 minutes.
Termination solution: 1.1 µL of 1 mM internal standard was added to 2 mL of acetonitrile. 1.5 mL of EP tubes were taken and 100 µL of termination solution was added to each EP tube. The concentration of the internal standard in the final 350 µL system is 100 ng/mL.
Detection: 10 µL of reaction solution was added to 100 µL of the termination solution in an EP tube, mixed thoroughly, and then 240 µL of distilled water was added and mixed well, centrifuged at 14,000 rpm for 5 minutes. 70 µL of supernatant was transferred to an LC-MS vial and API 6500 Qtrap LC-MS system was used to measure substrates and metabolites. The median inhibition concentrations (IC50) of the four optical isomers and ACHN-975 against rLpxC enzyme were calculated. Table 4 Inhibitory activity of 4 optical isomers and control drug against recombinant Escherichia coli LpxC enzyme

Vero cells = test: Vero cytotoxicity (CCK-8); assay type: cell-based; conditions: Chlorocebus sabaeus
Protocol: All liquid was transferred to a 15 mL centrifuge tube and centrifuged at 800 rpm for 5 min. […] A cell counter was used to measure cell density. Cells were inoculated at 100 µL and a density of 3 × 10^5/mL into a 96-well plate, with 6 replicates per group, and incubated at 37°C for 4 hours to allow cells to adhere to the wall. The compound was twofold continuously diluted with PBS, and 10 µL of the compound with the corresponding concentration was added to the 96-well plate, and shaken and mixed well on a shaker, and then incubated at 37°C for 24 hours. 10 µL of CCK-8 reagent was added to the 96-well plate, mixed thoroughly on a shaker, and incubated at 37°C for 2 hours. A microplate reader was used to measure the absorbance at 450 nm wavelength, and the inhibition rate of the compound on Vero cells was calculated. Table 5 Vero cytotoxicity of 4 optical isomers and control drug

Enterobacter cloacae = test: In vitro antibacterial activity, agar dilution method (MIC); assay type: cell-based
Summary of the method: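 CLSI agar dilution; inoculum ~10^4 CFU per spot from 0.5 McFarland suspension diluted 10-fold. Plates incubated 35°C for 18 h. MIC taken as lowest drug concentration giving no growth.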

[2] = ATCC49565, Proteus mirabilis ATCC 49565, agar dilution, 35°C, 18 hours, read-out: MIC
[3] = ATCC27993, Pantoea agglomerans ATCC 27993, agar dilution, 35°C, 18 hours, read-out: MIC
[4] = 18 h, Klebsiella pneumoniae 09-20 (mcr-1), agar dilution, 35°C, 18 hours, read-out: MIC
[5] = 18 h, Klebsiella pneumoniae 17-R27 (CRE), agar dilution, 35°C, 18 hours, read-out: MIC
[6] = 18 h, Klebsiella pneumoniae 18-8 (ESBLs-producing), agar dilution, 35°C, 18 hours, read-out: MIC
[7] = ATCC700603, 18 h, Klebsiella pneumoniae ATCC 700603 (ESBLs-producing), agar dilution, 35°C, 18 hours, read-out: MIC
[8] = ATCCBAA2146, 18 h, Klebsiella pneumoniae ATCC BAA-2146 (CRE, NDM-1-producing), agar dilution, 35°C, 18 hours, read-out: MIC
[9] = ATCC43864, Citrobacter freundii ATCC 43864, agar dilution, 35°C, 18 hours, read-out: MIC
[10] = ATCC13048, Enterobacter aerogenes ATCC 13048, agar dilution, 35°C, 18 hours, read-out: MIC
[11] = Pseudomonas aeruginosa PAO1, agar dilution, 35°C, 18 hours, read-out: MIC
[12] = ATCC21074, Serratia marcescens ATCC 21074, agar dilution, 35°C, 18 hours, read-out: MIC
[13] = ATCC29905, Proteus vulgaris ATCC 29905, agar dilution, 35°C, 18 hours, read-out: MIC
[14] = 18 h, Escherichia coli 13-43 (mcr-1), agar dilution, 35°C, 18 hours, read-out: MIC
[15] = 18 h, Escherichia coli 17-R28 (CRE, NDM-1-producing), agar dilution, 35°C, 18 hours, read-out: MIC
[16] = ATCC2469, 18 h, Escherichia coli ATCC 2469 (CRE, NDM-1-producing), agar dilution, 35°C, 18 hours, read-out: MIC
[17] = ATCC35218, 18 h, Escherichia coli ATCC 35218 (ESBLs-producing), agar dilution, 35°C, 18 hours, read-out: MIC
[18] = Vero cells, 24 hours incubation, CCK-8, read-out: IC50
[19] = Enterobacter cloacae CDC1000654 (NDM-1-producing), agar dilution, 35°C, 18 hours, read-out: MIC

SMILES: COC[C@H]1C[C@@H]1C#CC#Cc1ccc(C(=O)N[C@H](C(=O)NO)C(C)(C)N)cc1 [Ib, N-(S)-3-amino-1-hydroxyamino-3-methyl-1-oxobutan-2-yl-4-[[(1S,2S)-2-(methoxymethylene)cyclopropyl]but-1,3-diynyl]benzamide]
- MIC (Proteus mirabilis; Proteus mirabilis, ATCC49565, 18 h): 1 µg/mL (≈ 2.61 µM)
- MIC (Pantoea agglomerans; Pantoea agglomerans, ATCC27993, 18 h): 1 µg/mL (≈ 2.61 µM)
- MIC (Klebsiella pneumoniae; 18 h): 0.5 µg/mL (≈ 1.3 µM)
- MIC (Klebsiella pneumoniae; 18 h, Klebsiella pneumoniae 09-20 (mcr-1), agar dilution, 35°C): 0.5 µg/mL (≈ 1.3 µM)
- MIC (Klebsiella pneumoniae; 18 h, Klebsiella pneumoniae 17-R27 (CRE), agar dilution, 35°C): 0.25 µg/mL (≈ 0.652 µM)
- MIC (Klebsiella pneumoniae; ATCC700603, 18 h): 1 µg/mL (≈ 2.61 µM)
- MIC (Klebsiella pneumoniae; ATCCBAA2146, 18 h, Klebsiella pneumoniae ATCC BAA-2146 (CRE, NDM-1-producing), agar dilution, 35°C, 18 hours): 2 µg/mL (≈ 5.22 µM)
- MIC (Citrobacter freundii; Citrobacter freundii, ATCC43864, 18 h): 0.25 µg/mL (≈ 0.652 µM)
- MIC (Enterobacter aerogenes; ATCC13048, 18 h): 0.5 µg/mL (≈ 1.3 µM)
- MIC (Pseudomonas aeruginosa; Pseudomonas aeruginosa, PAO1, 18 h): 1 µg/mL (≈ 2.61 µM)
- MIC (Serratia marcescens; Serratia marcescens, ATCC21074, 18 h): 0.25 µg/mL (≈ 0.652 µM)
- MIC (Proteus vulgaris; Proteus vulgaris, ATCC29905, 18 h): 0.12 µg/mL (≈ 0.313 µM)
- MIC (Escherichia coli; 18 h, Escherichia coli 13-43 (mcr-1), agar dilution, 35°C): 0.5 µg/mL (≈ 1.3 µM)
- MIC (Escherichia coli; 18 h, Escherichia coli 17-R28 (CRE, NDM-1-producing), agar dilution, 35°C): 0.25 µg/mL (≈ 0.652 µM)
- MIC (Escherichia coli; ATCC2469, 18 h, Escherichia coli ATCC 2469 (CRE, NDM-1-producing), agar dilution, 35°C, 18 hours): 0.25 µg/mL (≈ 0.652 µM)
- MIC (Escherichia coli; ATCC35218, 18 h): 0.25 µg/mL (≈ 0.652 µM)
- IC50 [1]: 0.857 nM
- IC50 (Vero cells; Vero, 24 h): > 128000 nM
- MIC (Enterobacter cloacae; Enterobacter cloacae, 18 h): 2 µg/mL (≈ 5.22 µM)

SMILES: CO[C@H]1CCC[C@@H]1C#CC#Cc1ccc(C(=O)N[C@H](C(=O)NO)C(C)(C)N)cc1 [A]
- MIC (Proteus mirabilis; [2]): 1 µg/mL (≈ 2.52 µM)
- MIC (Pantoea agglomerans; [3]): 2 µg/mL (≈ 5.03 µM)
- MIC (Klebsiella pneumoniae; [4]): 1 µg/mL (≈ 2.52 µM)
- MIC (Klebsiella pneumoniae; [5]): 1 µg/mL (≈ 2.52 µM)
- MIC (Klebsiella pneumoniae; [6]): 0.5 µg/mL (≈ 1.26 µM)
- MIC (Klebsiella pneumoniae; [7]): 8 µg/mL (≈ 20.1 µM)
- MIC (Klebsiella pneumoniae; [8]): 8 µg/mL (≈ 20.1 µM)
- MIC (Citrobacter freundii; [9]): 0.25 µg/mL (≈ 0.629 µM)
- MIC (Enterobacter aerogenes; [10]): 0.5 µg/mL (≈ 1.26 µM)
- MIC (Pseudomonas aeruginosa; [11]): 2 µg/mL (≈ 5.03 µM)
- MIC (Serratia marcescens; [12]): 0.25 µg/mL (≈ 0.629 µM)
- MIC (Proteus vulgaris; [13]): 0.5 µg/mL (≈ 1.26 µM)
- MIC (Escherichia coli; [14]): 1 µg/mL (≈ 2.52 µM)
- MIC (Escherichia coli; [15]): 0.25 µg/mL (≈ 0.629 µM)
- MIC (Escherichia coli; [16]): 0.12 µg/mL (≈ 0.302 µM)
- MIC (Escherichia coli; [17]): 0.25 µg/mL (≈ 0.629 µM)
- IC50 [1]: 4.68 nM
- IC50 (Vero cells; [18]): > 64000 nM
- MIC (Enterobacter cloacae; [19]): 4 µg/mL (≈ 10.1 µM)

SMILES: COC[C@@H]1C[C@@H]1C#CC#Cc1ccc(C(=O)N[C@H](C(=O)NO)C(C)(C)N)cc1 [Id, N-(S)-3-amino-1-hydroxyamino-3-methyl-1-oxobutan-2-yl-4-[[(1S,2R)-2-(methoxymethylene)cyclopropyl]but-1,3-diynyl]benzamide]
- MIC (Proteus mirabilis; [2]): 1 µg/mL (≈ 2.61 µM)
- MIC (Pantoea agglomerans; [3]): 1 µg/mL (≈ 2.61 µM)
- MIC (Klebsiella pneumoniae; [4]): 0.5 µg/mL (≈ 1.3 µM)
- MIC (Klebsiella pneumoniae; [5]): 0.5 µg/mL (≈ 1.3 µM)
- MIC (Klebsiella pneumoniae; [6]): 0.5 µg/mL (≈ 1.3 µM)
- MIC (Klebsiella pneumoniae; [7]): 2 µg/mL (≈ 5.22 µM)
- MIC (Klebsiella pneumoniae; [8]): 2 µg/mL (≈ 5.22 µM)
- MIC (Citrobacter freundii; [9]): 0.25 µg/mL (≈ 0.652 µM)
- MIC (Enterobacter aerogenes; [10]): 0.5 µg/mL (≈ 1.3 µM)
- MIC (Pseudomonas aeruginosa; [11]): 1 µg/mL (≈ 2.61 µM)
- MIC (Serratia marcescens; [12]): 0.25 µg/mL (≈ 0.652 µM)
- MIC (Proteus vulgaris; [13]): 0.12 µg/mL (≈ 0.313 µM)
- MIC (Escherichia coli; [14]): 0.5 µg/mL (≈ 1.3 µM)
- MIC (Escherichia coli; [15]): 0.25 µg/mL (≈ 0.652 µM)
- MIC (Escherichia coli; [16]): 0.25 µg/mL (≈ 0.652 µM)
- MIC (Escherichia coli; [17]): 0.25 µg/mL (≈ 0.652 µM)
- IC50 [1]: 0.892 nM
- IC50 (Vero cells; [18]): > 128000 nM
- MIC (Enterobacter cloacae; [19]): 1 µg/mL (≈ 2.61 µM)
